Patent publication US5594009A, “Fused pyrrolocarbazoles” (priority 1995, dated 1997)

What was measured:
protein kinase C = test: PKC Activity Inhibition Assay; assay type: biochemical
Procedure: Fused pyrrolocarbazoles inhibited the activity of protein kinase C (Table VI). The protein kinase C assay has been disclosed (Murakata et al., U.S. Pat. No. 4,923,986; Kikkawa et al., J. Biol. Chem. 257:13341-13348 (1982)). The assay was performed with several concentrations of fused pyrrolocarbazoles. The concentration at which protein kinase C was 50% inhibited (IC50) was determined.

[1] = test system: chick dorsal root ganglion neurons; test: DRG Neurite Outgrowth Assay; assay type: cell-based; conditions: compound concentration 200 nM; 48 hours
Procedure: Fused pyrrolocarbazoles promoted nerve fiber (i.e., neurite) outgrowth in explant (i.e., primary) cultures of chick dorsal root ganglion neurons. Dorsal root ganglion (i.e., DRG) nerve fiber outgrowth was increased when a fused pyrrolocarbazole was added to cultures at a concentration of 200 nM (Table IV). Control cultures consisted of: 1) no added NGF or fused pyrrolocarbazole ("Control"), or 2) 50 ng/ml NGF, a neurotrophin known to promote neurite extension in DRG cultures ("NGF").
Methods: Dorsal root ganglia were dissected from chick embryos (embryonic day 9) and individual ganglia were plated on poly-1-ornithine and laminin coated plates. A fused pyrrolocarbazole or 50ng/ml NGF was each added to independent cultures after allowing a 1-2 hour cell attachment period. Explants were cultured for 48 hours in serum-free N2 medium supplemented with 0.05% BSA (Bottenstein et al., PNAS USA 76:514-517 (1979)). Cultures were maintained at 37° C. in a humidified atmosphere, 5% CO2 /95% air. Nerve fiber outgrowth was assessed by the density and length of neurites. It should be apparent to those skilled in the art that neurite extension assays are semi-quantitative and involve a visual comparison between control and experimental neuronal cell cultures (Alberts et al., Molecular Biology of the Cell, 2ed. Garland Publishing, Inc., New York (1989).

AT-2 cells = test: Inhibition of Growth of Prostate Cancer Cell Line (MTS assay); assay type: cell-based; conditions: 72 h; 3 days, MTS; read-out: AT-2 cell growth IC50
In short: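 AT-2 rat Dunning prostate cancer cells were plated in RPMI-1640 with 10% FCS and 250 nM dexamethasone; compounds added next day, initially at 10–0.01 μM, then at 3 or more concentrations near the IC50. Cell number was measured 3 days later by MTS/PMS reduction (A490).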

O=C1NCc2c1c1c(c3[nH]c4ccccc4c23)Cc2ccccc2-1 [Compound I-2]
IC50 (protein kinase C): 110 nM | DRG Neurite Outgrowth [1]: modest to dense outgrowth of neurites | IC50 (AT-2 cells): 4600 nM
